Experimental data reported in patent publication US20090196854A1, “METHODS AND COMPOSITIONS FOR USE OF CRL 5803 CELLS FOR EXPRESSION OF BIOTHERAPEUTICS AND ENCAPSULATED CELL-BASED DELIVERY” (priority 2008, published 2009).
In brackets after ≈: the same amount, converted by molar mass.

Experiments:
CRL5816 cells = assay: sensitivity to killing by 2-deoxyglucose; assay type: cell-based, human; details: 10 mM 2-deoxyglucose, 4 days
HTB10 = assay: sensitivity to killing by 2-deoxyglucose; assay type: cell-based, human
Protocol: (§1) The glucose requirements of CRL 5803 was also determined and compared to the HTB10 and CRL5816 cell lines.
(§2) The 2-deoxyglucose sensitivity was tested with the 4 cell lines being screened for CNS use with doses of 2-DG from 1-20 mM, the HTB10 cell line was also included in this screen as a positive control for 2-DG killing. […] However, 2-DG did result in slowed growth, and concentrations producing 50% inhibition (IC50) were calculated (based on a four-parameter fit of the data).

[1] = tested on: four candidate cell lines; assay: 2-deoxyglucose sensitivity (growth) of cell lines screened for CNS use; assay type: cell-based, human
Protocol: as §2

CRL 5803 = assay: sensitivity to killing by 2-deoxyglucose; assay type: cell-based, human; details: up to 20 mM 2-DG
Protocol: as §1

A2058 = tested on: A2058
Protocol: (§3) The newly selected cell types were then screened for r sensitivity to 5-fluorouracil (5-FU). This screening was accomplished by plating the cell lines in 48 well plates, and after overnight attachment adding varying concentrations of 5-FU from 0-500 μM. The growth of the cells was then monitored at 1-2 day intervals with the fluorescent substrate resazurin.

BON cell line = assay: 5-FU cytotoxicity screen; assay type: cell-based; details: Homo sapiens, neutral red endpoint after 5-7 days, read-out: concentration required to kill 50% of the cells
Protocol: Drug Exposure and elimination of BON cell line: The drug 5-FU was dissolved in DMSO at a concentration of 0.5 M, and this stock used to make media with micromolar concentrations of the drug ([…]). Cells plated in 24 or 48 well plates in growth phase were cultured with 5-FU supplemented medium for 1-2 weeks. […] This growth measurement was conducted during exposure and if cells grew or survived, growth was followed in the weeks subsequent to removal of 5-FU.
In initial screening, an endpoint assay of viability was performed with the uptake of neutral red (50 μg/ml for 1 h) after 5-7 days, later studies of the selected cell lines used resazurin to monitor growth, as well as viable cell mass.

ARPE-19 cells = assay: sensitivity to 5-FU, growth monitored with resazurin
Protocol: as §3

[2] = tested on: all cell lines except for ARPE-19 and A2058 (CRL 5803, CCL-205, CRL1440); assay: as above; assay type: cell-based, human; details: all cell lines except ARPE-19 and A2058
K3.3 = assay: 5FC and 5FU dose-response in BDNF-expressing CRL 5803 line and CD transfectants; assay type: cell-based; details: Homo sapiens; K3.3; read-out: IC50 for 5FU
Protocol: (§4) CRL 5803 cells expressing BDNF and CD: The CRL 5803 cell line was transfected with BDNF and clones expressing BDNF were selected. These selected clones were expanded to provide cells for transfections with cytosine deaminase plasmid (CX014). Four CD gene transfection studies were performed with three different BDNF-expressing cell lines. For each cell line at least 24 resistant clones were picked and screened for sensitivity to 100 μM 5FC. The clones with the lowest survival in 5FC (as percent of control wells) were then expanded for dose-response studies with 5FC and 5FU. Cytotoxicity of 5FC was used as an indication of CD gene expression, and this screen provided 6-9 clones per transfection. The IC50 for 5FU indicated the maximum potential cytotoxicity of the prodrug, 5FC, in cells expressing sufficient levels of CD gene and protein.

K3.31 = assay: as above; assay type: cell-based; details: Homo sapiens; K3.31; read-out: IC50 for 5FU
Protocol: as §4

K3.4 = assay: as above; assay type: cell-based; details: Homo sapiens, read-out: IC50 for 5-FU
Protocol: as §4

CRL5803 = assay type: cell-based, human
Protocol: (§5) The cell lines were plated in 48 well plates at an appropriate dilution of cells for each cell line to provide for rapid entry into log phase of growth. The various concentrations of the selection drugs were added so that the drugs were present at the initiation of log phase growth and viable cells were determined after 7-10 days of culture. The screening used data for functional mass at the end of the study to express viable cells as a percentage of the vehicle, or no-treatment control wells. […] The % viable cell mass data was plotted, and fitted typically with a four-parameter equation. The fitted equation was used to calculate the IC50 dose. The drugs tested were G418 (inactivated by neomycin phophotransferase, NPT), hygromycin (inactivated by hygromycin phosphotansferse, HPT), blasticidin (inactivated by blasticidin deaminase, BSD), and zeocin (bound by bleomycin binding protein, BBP). These antibiotics were obtained from Invitrogen/Gibco (Invitrogen SA, Barcelona).
(§6) The drugs, G418, Zeocin, hygromycin, and blasticidin were obtained and used as described earlier. The most important aspect of these studies was to identify the concentration needed to kill all non-transfected cells.

CCL205 = assay type: cell-based, human
Protocol: as §5, §6

ARPE-19 = assay type: cell-based, human
Protocol: as §5, §6

CRL1440 = assay type: cell-based, human
Protocol: as §5, §6

CCL205 polyclones = assay: Blsd dose-response of growth in BSD-transfected polyclones; assay type: cell-based, human
Excerpt: (§7) Each cell line was transfected under conditions optimized for that specific cell line, and with each of three different constructs. Within 2-3 days of transfection the cultures were selected with blasticidin at the appropriate selection concentration identified for that cell line.
(§8) The three plasmid constructs tested differed in the promoter used to control the expression of the BSD gene (commercial plasmids from Invitrogen). At the end of selection (10-14 days) the surviving cells were passaged to establish a B1sd-resistant polyclone. Each Blsd-resistant polyclonal cell line was analyzed for the capacity to grow in Blsd at varying concentrations. The Blsd dose-response curve was plotted (growth vs dose) and the IC50 calculated for each promoter construct. The IC50 was taken to indicate the average BSD enzyme expression and activity level, and to indicate the relative activity of the regulatory elements in each cell line context.

CRL 5803 polyclones = assay: as above; assay type: cell-based, human; details: for IC50 for Blsd-resistant growth: CRL 5803
Excerpt: as §7, §8

CRL1440 polyclones = assay: as above; assay type: cell-based, human
Excerpt: as §7, §8

ARPE-19 polyclones = assay: as above; assay type: cell-based, human
Excerpt: as §7, §8

CRL5867 = assay: selection drug and ouabain sensitivity screen; assay type: cell-based, human; details: resistant if IC50 >1000 μg/ml (G418, hygromycin), ouabain 10^-4 M range
Protocol: (§9) The cell lines were plated in 48 well plates at an appropriate dilution of cells for each cell line to provide for rapid entry into log phase of growth. The various concentrations of the selection drugs were added so that the drugs were present at the initiation of log phase growth and viable cells were determined after 7-10 days of culture. The screening used data for functional mass at the end of the study to express viable cells as a percentage of the vehicle, or no-treatment control wells. Each treatment concentration was based on results for at least 3-4 wells. The % viable cell mass data was plotted, and fitted typically with a four-parameter equation. The fitted equation was used to calculate the IC50 dose. The drugs tested were G418 (inactivated by neomycin phophotransferase, NPT), hygromycin (inactivated by hygromycin phosphotansferse, HPT), blasticidin (inactivated by blasticidin deaminase, BSD), and zeocin (bound by bleomycin binding protein, BBP). These antibiotics were obtained from Invitrogen/Gibco (Invitrogen SA, Barcelona). Cells were considered to be resistant if the IC50 was >1000 μg/ml for G418, hygromycin, and zeocin, or concentrations >20 μg/ml for blasticidin. Although ouabain is not a classical selection drug, the rodent gene for Na—K ATPase shifts the sensitivity into the 10^−4 M range, while human cells are sensitive in the 10^−9 to 10^−6 M range, thus IC50s in the 10^−4 M range were taken to indicate resistance.

CRL5808 = assay: selection drug and ouabain sensitivity screen; assay type: cell-based, human; details: ouabain IC50 in the 10^-4 M range taken as resistance
Protocol: as §9

CRL1803 = assay: selection drug and ouabain sensitivity screen; assay type: cell-based, human; details: ouabain IC50 in the 10^-4 M range taken as resistance
Protocol: as §9

[3] = tested on: human cell lines (CCL205, A2058, CRL1440, ARPE-19, CRL 5803); assay type: cell-based

## O=CC[C@@H](O)[C@H](O)[C@H](O)CO [2-DG, 2-deoxyglucose]
CRL5816 cells
  viable cells after 2-deoxyglucose: no detectable viable cells
HTB10; HTB10 positive control, doses 1-20 mM
  killing by 2-DG: killed with the lowest concentration
HTB10; Homo sapiens, HTB10, read-out: 2-DG concentration for 50% killing
  IC50: 600 µM
[1]; Homo sapiens, range over the cell lines, four-parameter fit, read-out: concentrations producing 50% inhibition (IC50) of growth
  IC50: 5 to 11 mM
[1]; doses of 2-DG from 1-20 mM
  killing by 2-DG: no killing
CRL 5803
  sensitivity to killing by 2-deoxyglucose: nor was it sensitive to killing

## O=c1[nH]cc(F)c(=O)[nH]1 [5-FU, 5-fluorouracil]
A2058
  5-FU concentration at which killing began: > 500 µM
  5-FU concentration that did not affect the cell line: < 10 µM
  5-FU concentrations with dominantly cytostatic response: 10 to 100 µM
BON cell line
  IC50: ≥ 500 µM
ARPE-19 cells
  5-FU concentrations that slowed growth: > 5 µM
  5-FU doses with killing and growth arrest: > 10 µM
  doubling time after 5-FU exposure: 60 h
  lethal dose of 5-FU: 500 µM
ARPE-19 cells; ARPE-19, 2 weeks of exposure
  effect of 100 μM 5-FU: not a lethal dose
[2]
  concentration of 5-FU that resulted in 50% killing: < 35 µM
K3.3
  IC50: 5 ± 1 µM
K3.31
  IC50: 9 ± 1 µM
K3.4
  IC50: 8.5 ± 0.3 µM

## CN(CC[C@H](N)CC(=O)N[C@H]1C=C[C@H](n2ccc(N)nc2=O)O[C@@H]1C(=O)O)C(=N)N [Blasticidin]
CRL5803
  concentration found to kill non-transfected cells: 2 µg/mL
CCL205
  concentration found to kill non-transfected cells: 1 µg/mL
ARPE-19
  concentration found to kill non-transfected cells: 3 µg/mL
CRL1440
  concentration found to kill non-transfected cells: 1 µg/mL
CCL205 polyclones; CMV promoter
  IC90: > 3 µg/mL
CCL205 polyclones; EF-1 and UBq promoter constructs
  IC90: 0.8 µg/mL (≈ 1.89 µM)
CCL205 polyclones; all three promoter constructs
  growth-based IC50: 0.6 µg/mL
CRL 5803 polyclones; CMV promoter-BSD
  IC50 for Blsd-resistant growth: 21 µg/mL
CRL 5803 polyclones; EF-1α promoter-BSD
  IC50 for Blsd-resistant growth: 3 µg/mL
CRL 5803 polyclones; UBq promoter-BSD
  IC50 for Blsd-resistant growth: 35 µg/mL
CRL 5803 polyclones; CRL 5803 control cells transfected with NPT plasmid (no BSD)
  IC50 for growth in Blsd: 1 μg-Blsd/ml
CRL 5803 polyclones; CRL 5803 polyclones, best promoter
  shift in the inhibitory concentration of Blsd: 30 fold
CRL1440 polyclones; CMV promoter-BSD
  IC50 for Blsd-resistant growth: 0.6 µg/mL
CRL1440 polyclones; EF-1 promoter polyclones
  IC50 for Blsd-resistant growth: 5 µg/mL
CRL1440 polyclones; UBq promoter polyclones
  IC50 for Blsd-resistant growth: 21 µg/mL
ARPE-19 polyclones; CMV promoter-BSD
  IC50 for Blsd-resistant growth: 12 µg/mL
ARPE-19 polyclones; EF-1a promoter-BSD
  IC50 for Blsd-resistant growth: 4.5 µg/mL
ARPE-19 polyclones; UBq promoter-BSD
  IC50 for Blsd-resistant growth: 3 µg/mL
ARPE-19 polyclones; best promoter
  shift in the inhibitory concentration of Blsd: 8 fold

## CN[C@@H]1[C@@H](O)[C@@H](O[C@@H]2[C@@H](O)[C@H](O[C@H]3O[C@H]([C@@H](C)O)[C@@H](O)[C@H](O)[C@H]3N)[C@@H](N)C[C@H]2N)OC[C@]1(C)O [G418]
CRL5803
  concentration found to kill non-transfected cells: 500 µg/mL
CCL205
  concentration found to kill non-transfected cells: 75 µg/mL
ARPE-19
  concentration found to kill non-transfected cells: 175 µg/mL
CRL1440
  concentration found to kill non-transfected cells: 100 µg/mL
CRL5867
  resistance or sensitivity to drug: sensitive to killing

## C[C@@H]1O[C@@H](O[C@H]2C[C@@H](O)[C@]3(CO)[C@H]4[C@H](O)C[C@]5(C)[C@@H](C6=CC(=O)OC6)CC[C@]5(O)[C@@H]4CC[C@]3(O)C2)[C@H](O)[C@H](O)[C@H]1O [ouabain]
CRL5867
  resistance or sensitivity to drug: resistance
CRL5808
  resistance or sensitivity to drug: resistant
CRL1803
  resistance or sensitivity to drug: resistant

## O=c1ccc2nc3ccc(O)cc3oc-2c1 [resorufin]
[3]
  concentration toxic with many cells: 1 to 10 µM
